Source: patent EP0302435A1, “Method for augmenting antibody-dependent cellular cytotoxicity” (NEORX CORPORATION, priority 1987, dated 1989)

System: LS-180 target cells
Test: PMN-ADCC target cell lysis assay (⁵¹Cr release)
Format: cell-based, human
Conditions: for % Cytotoxicity: PMNs pretreated 30 min, E:T 100:1, 3 h ADCC assay; for % Cytotoxicity / augmentation of PMN-mediated IgG₃ ADCC: antibody NR-CO-04; for augmentation of PMN-mediated IgG₃ ADCC: activator pretreatment of PMNs, summary of Table 2
Protocol: Peripheral blood polymorphonuclear leukocytes (PMNs) were obtained from healthy normal human donors. Blood (150 cc) was withdrawn by venipuncture in heparinized tubes and mixed with an equal volume of 3% dextran in phosphate-buffered saline (PBS). After sedimentation at 1 x g for 10 min at room temperature, the leukocyte-rich plasma was layered on top of lymphocyte separation medium (LSM, Organon Technica, Durham, NC). PMNs were purified by treating the PMNs and red blood cell (RBC) pellet with RBC lysing solution (0.800% w/v NH₄Cl, 0.1% w/v KHCO₃, 37.0 mg tetrasodium EDTA in 100 ml water at pH 7.3). After incubating approximately 5 min at room temperature, the volume was increased 3X with PBS and the cells washed twice by centrifugation. After resuspension of the cells in RPMI-5% FCS, the PMNs were used in cytotoxicity assays or were incubated with response modifiers.
An appropriate number of target cells were labeled with 200 µCi ⁵¹Cr (⁵¹Cr-Na₂CrO₃; New England Nuclear, Boston, MA) for 2 h at 37°C, with gentle mixing every 15-30 min. The labeled cells were washed three times with 15 ml RPMI followed by centrifugation at 250 x g for 5 min at room temperature. The final pellet was resuspended in RPMI containing 5% FCS, counted, and diluted to an appropriate concentration.
In a typical assay, effector PMNs at different effector:target ratios were added to wells of a microtiter plate (Falcon Plastics, Oxnard, CA), except for those wells to be used for determination of total and spontaneous release of ⁵¹Cr from target cells. For GM-CSF augmentation, PMNs were generally treated within the microtiter plates by the addition of the lymphokine. The effector cells were either washed before the addition of antibody and target cells, or were left in the presence of lymphokine during the ADCC assay.
NR-CO-04 antibody was added to appropriate wells at a concentration of 1 µg/well (4 µg/ml), and the microtiter plate was then incubated at 37°C for 3 h. […]
Wells used for determination of spontaneous ⁵¹Cr release received labeled target cells alone in 200 µl of RPMI-5% FCS; the wells used for determination of total ⁵¹Cr release received labeled target cells and 200 µl 1.0% NP-40.
After […] incubation, the microtiter plate was centrifuged at 250 x g for 5 min at room temperature, and 125 µl of supernatant was transferred from each well into a separate 12 x 75 mm glass tube. Each tube was then assayed for ⁵¹Cr release with a Beckman 5000 gamma counter.
PMN-ADCC assays were performed in triplicate, according to the procedure described in Example I.E., supra. The % lysis (or percent specific release) is indicative of the level of ADCC of target cells. Test release is the amount of release in wells containing effector cells and target cells.

Molecule | % Cytotoxicity (concentration not given) [%] | augmentation of PMN-mediated IgG₃ ADCC | GM-CSF augmentation of PMN-ADCC (dose-dependent, 1 to 100 μM retinal, summary of Table 4) | low level of PMN-ADCC observed in the absence of GM-CSF stimulation (dose-dependent, summary of Table 4) | % Cytotoxicity (10⁻⁷ M) [%] | % Cytotoxicity (10⁻⁸ M) [%] | % Cytotoxicity (10⁻⁹ M) [%]
CCCCCCCCCCCCCC(=O)O[C@@H]1[C@@H](C)[C@@]2(O)[C@@H](C=C(CO)C[C@]3(O)C(=O)C(C)=C[C@@H]23)[C@@H]2C(C)(C)[C@]12OC(C)=O [PMA, phorbol myristate acetate] | 18.8 ± 0.6 | less effective than GM-CSF |  |  |  |  | 
CC1=C(/C=C/C(C)=C/C=C/C(C)=C/C=O)C(C)(C)CCC1 [Retinal] |  |  | abrogated | further depressed |  |  | 
fMET-Leu-Phe peptide [fMLP] |  | less effective than GM-CSF |  |  | 16.2 ± 0.8 | 23.7 ± 1.2 | 15.6 ± 0.8
